Where “and” joins values, the source holds several entries; their conditions need not be identical. Equal values may be shown once. Entries after “also recorded” stand apart in the source; their conditions may differ. Read-outs that look alike come from different tables or passages of the source.
How the values were obtained:
PpPII = PpPII (Porphyra purpurea, UniProt P51254); experiment: ITC binding of small effector molecules to red algal PpPII
Experimental: (§1) To gain additional insights into the ligand binding properties of PpPII in comparison to cyanobacterial and chloroplastid PII proteins, isothermal titration calorimetry (ITC) experiments were performed using highly purified Strep-tagged or His-tagged recombinant PpPII, SyPII, CrPII, and PhyscoPII proteins (Supplementary Fig. S1) with different protein/ligand/ concentrations to determine the best fitting conditions of the binding model. The titration experiments were repeated with different protein preparations to confirm the reproducibility of the results. The raw isothermal data were fitted into one-binding site as well as three-sequential binding sites to define the best fitting model. Fitting using a one binding site model states an average Kd value for all available binding sites and the mean of the stoichiometry of bound ligands.
(§2) The ITC experiments were done using a VP-ITC microcalorimeter (MicroCal, LCC). All details for determination of binding constants for small effector molecules using ITC are fully described in the supplementary information. Heat isotherms of the dilution of the ligand in the cell buffer were collected in a blank run for each experiment in the absence of protein. The binding isotherms were calculated from received data and fitted to one-site and three-sequential binding sites models using the MicroCal ORIGIN software (Northampton) as described. All titrations were performed in duplicates with different purification batches of recombinant PII proteins. The association binding constant (Ka) was generated from the software by de-convolution and curve fitting. For calculation of dissociation constant (Kd), the Ka value was inversed.
(§3) Supplementary Information […]
(§4) Determination of Binding Constants for Small Effector Molecules using Isothermal […]
(§5) The binding of the small effector molecules to the recombinant PII proteins was tested using isothermal titration calarmity (ITC); VP-ITC microcalorimeter (MicroCal). All titrations were performed on 20°C using […] injection syringe with injection 6 µl or 10 µl of the tested ligands for 45 or 29 times, respectively into the cell (1.4 ml) with continuous stirring at 155 rpm. All tested ligands were high grade, prepared freshly in the same buffer of the protein and purchased from Sigma-Aldrich. Heat isotherms for the dilution of the ligand in the cell buffer were collected in a blank run in the absence of protein. The received calorimetric data were analyzed using MicroCal Origin software and fitted into one-site and three-sequential binding sites models, as indicated by the manufacture for calculation of binding isotherms9. For data reproducibility, the titrations were performed in duplicates with different purification batches of recombinant PII proteins. The association binding constant (Ka) was generated from the software by de-convolution and curve fitting. For calculation of dissociation constant (Kd), the Ka value was inversed.
For determination the binding isotherms of red algal PpPII protein, a buffer system composed of […]
used. For determination ATP and ADP binding isotherms upon the binding to PpPII protein, His- […]
against 2 mM ATP or 2 mM ADP. For determination of ATP and ADP binding isotherms in […]
concentration) was titrated against 0.5 mM of ATP or 1 mM ADP, respectively. However, for […]
of 1 mM of ATP or 1 mM ADP. […]

PhyscoPII = experiment: ITC binding of small effector molecules to plant-moss PhyscoPII; parameters: species or system Physcomitrella patens
Experimental: as §1, §2, §3, §4, §5
5 mM MgCl2, 0.5 mM EDTA, and 10% glycerol (pH 7.6). […]
For determination the binding isotherms of plant-moss PhyscoPII protein, a strep-tagged recombinant protein (5 or 6 µM trimeric concentration) was used in system composed of 20 mM

CrPII = experiment: ITC binding of small effector molecules to green algal CrPII; parameters: species or system Chlamydomonas reinhardtii
Experimental: as §1, §2, §3, §4
as §5, with “inversed. […]” for “inversed.”

Chain of PpPII (P51254 whole entry): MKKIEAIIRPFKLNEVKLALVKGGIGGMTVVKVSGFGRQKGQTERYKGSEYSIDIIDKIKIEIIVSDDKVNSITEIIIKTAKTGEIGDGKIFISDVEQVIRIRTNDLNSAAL

Nc1ncnc2c1ncn2[C@@H]1O[C@H](COP(=O)(O)OP(=O)(O)O)[C@@H](O)[C@H]1O [ADP]
N, number of calculated binding sites (one-site binding model) (PpPII; in presence 2-OG (1 mM)): 2.7 | Kd (PpPII; in presence 2-OG (1 mM), read-out: Average Kd (one-site binding model)): 10.8 ± 2.8 µM | Kd (PpPII; in presence 2-OG (1 mM), read-out: Kd1 (three-sites binding model)): 10.3 ± 10 µM | Kd (PpPII; in presence 2-OG (1 mM), read-out: Kd2 (three-sites binding model)): 43.6 ± 4.7 µM | Kd (PpPII; in presence 2-OG (1 mM), read-out: Kd3 (three-sites binding model)): 125.9 ± 0.9 µM | N, number of calculated binding sites (one-site binding model) (PpPII; titrant alone, per PII trimer): 2.7 | Kd (PpPII; titrant alone, read-out: Average Kd (one-site binding model)): ~7.2 µM and 7.2 µM | Kd (PpPII; titrant alone, read-out: Kd1 (three-sites binding model)): 3.4 ± 0.5 µM | Kd (PpPII; titrant alone, read-out: Kd2 (three-sites binding model)): 15.2 ± 0.7 µM | Kd (PpPII; titrant alone, read-out: Kd3 (three-sites binding model)): 132 ± 2.7 µM | Average Kd (one-site binding model) (PhyscoPII; in presence 2-OG): No binding | Kd1 (three-sites binding model) (PhyscoPII; in presence 2-OG): No binding | Kd2 (three-sites binding model) (PhyscoPII; in presence 2-OG): No binding | Kd3 (three-sites binding model) (PhyscoPII; in presence 2-OG): No binding | Average Kd (one-site binding model) (PhyscoPII; titrant alone): unable to detect any binding; also recorded: No binding | Kd1 (three-sites binding model) (PhyscoPII; titrant alone): No binding | Kd2 (three-sites binding model) (PhyscoPII; titrant alone): No binding | Kd3 (three-sites binding model) (PhyscoPII; titrant alone): No binding | Average Kd (one-site binding model) (CrPII; in presence 2-OG (2 mM)): no ADP binding | Kd1 (three-sites binding model) (CrPII; in presence 2-OG (2 mM)): No binding | Kd2 (three-sites binding model) (CrPII; in presence 2-OG (2 mM)): No binding | Kd3 (three-sites binding model) (CrPII; in presence 2-OG (2 mM)): No binding | Average Kd (one-site binding model) (CrPII; titrant alone): unable to notice any binding; also recorded: No binding | Kd1 (three-sites binding model) (CrPII; titrant alone): No binding | Kd2 (three-sites binding model) (CrPII; titrant alone): No binding | Kd3 (three-sites binding model) (CrPII; titrant alone): No binding
